Results from US10869849B2, “Substituted aromatic compounds and pharmaceutical compositions for tissue self-repair and regeneration” (Liminal BioSciences Limited, priority 2014, dated 2020).
Counter-ions that a name gives are not always drawn.

What was measured:
[1] = system: Hepatocyte Growth Factor (HGF); experiment: HGF mRNA expression in TGF-β1-treated normal human dermal fibroblasts (real-time PCR); format: cell-based; conditions: compound 500 μM, 24 h; for fold induction at 500 µM: Homo sapiens, NHDF + rhTGF-β1 (10 ng/ml), TGF-β1 control = 1.00, untreated = 7.23, read-out: HGF Relative Quantitation
Method: (§1) Experiments were undertaken to determine the effect of compounds on hepatocyte growth factor expression in vitro normal human dermal fibroblasts (NHDF) from adult donor (Clonetics #CC-2511). NHDF were starved overnight in DMEM/F12+0.5% FBS and treated with or without rhTGF-β1 (10 ng/ml) and compound I (500 μM) for 24 h. RNA was isolated with miRNeasy® kit (QIAGEN®), including on-column DNase digestion step. cDNA synthesis was done (0.5 μg RNA/reaction) using the RT^2 First Strand kit (QIAGEN® #330401). Real-Time PCR was performed as described in the RT^2 Profiler PCR Array handbook on a AB-7900HT real-time cycler. Real-Time PCR data was analyzed using the ΔΔCt method on the RT^2 Profiler PCR Array Data Analysis Web Portal. All Ct values >35 or non amplified were changed to the cut-off value of 35. The housekeeping genes used for normalization are GAPDH and RPLP0. The control group is TGF-β1 treated cells.

[2] = system: LOX, MMP13, PLAU (uPA), serpin E1, TIMP3 and ILK; experiment: Expression of regeneration markers in TGF-β1-injured NHDF (FIG. 2); format: cell-based, human; conditions: rhTGF-β1 (10 ng/ml), compound 500 μM, 24 h
Method: as §1, with “cells. An experiment was undertaken to determine the effect of compounds on the expression of regeneration markers. This experiment was performed with NHDF (Normal Human Dermal Fibroblasts) and human epithelial cells (renal tubular epithelial cells, HK-2) involved in tissue regeneration after single, multiple or constant injury. Injury was simulated by incubation of the cells with TGF-β1. […]” for “cells.”

[3] = system: LOX, MMP1, MMP2, MMP9, MMP13, TIMP3 and PLAT (tPA); experiment: Expression of regeneration markers in TGF-β1-injured HK-2 epithelial cells (FIG. 3); format: cell-based, human; conditions: HK-2 cells, rhTGF-β1 (10 ng/ml), compound 500 μM, 24 h
Serpin A1 (AAT) = experiment: AAT mRNA expression, qPCR-panel on NHDF (FIG. 4); format: cell-based, human; conditions: injured NHDF cells
Method: as §1, with “cells. As mentioned above, AAT can induce nerve regeneration. […] Compound I is representative of the compounds of formula I disclosed herein. Therefore, the compounds of formula I disclosed herein may increase regeneration of nerves via the production of endogenous AAT at the site of injury.” for “cells.”

injured kidney = experiment: Organ function (GFR) of an injured kidney (FIG. 5); format: in vivo
[4] = system: Hepatocyte Growth Factor (HGF); experiment: HGF mRNA expression in TGF-β1-treated normal human dermal fibroblasts (real-time PCR); format: cell-based; conditions: NHDF + rhTGF-β1 (10 ng/ml), 24 h, TGF-β1 control = 1.00, untreated = 7.23, read-out: HGF Relative Quantitation; for fold induction at 250 µM: compound 250 μM; for fold induction at 100 µM: compound 100 μM

CCCCCc1cccc(C(F)C(=O)O)c1 (racemic) [Compound XIII, Sodium Salt of (RS)-2-Fluoro-2-(3-pentylphenyl)acetic acid] gave a fold induction at 500 µM [1] of 1.71.

In the case of CCCCCc1cccc(CC(=O)[O-])c1.[Na+] [Compound I, Sodium Salt of (3-pentylphenyl)acetic acid], the fold induction at 500 µM [1] is reported as 4.23, the “expression of HGF (FIG. 1), result in words” value ([1]; NHDF, rhTGF-β1 (10 ng/ml)) is reported as “increases the expression of HGF” and the “expression level of regeneration markers LOX, MMP13, PLAU (uPA), serpin E1, TIMP3 and ILK” value [2] is reported as “all expressed at a normal level”. For the same compound, the “expression level of regeneration markers LOX, MMP1, MMP2, MMP9, MMP13, TIMP3 and PLAT (tPA)” value [3] was “all expressed at a level close to the normal level observed in healthy cells”, the “AAT mRNA expression” value (Serpin A1 (AAT)) was “increase AAT mRNA expression” and the “organ function (GFR)” value (injured kidney) was “increase in organ function (GFR)”.

In the case of CCCCCc1cccc(CCC(=O)O)c1 [Compound II, Sodium Salt of 3-(3-pentylphenyl)propionic acid], the fold induction at 250 µM [4] is reported as 1.37.

CCCCc1cccc(CCC(=O)O)c1 [Compound III, Sodium Salt of 3-(3-butylphenyl)propionic acid] gave a fold induction at 500 µM [1] of 2.41.

In the case of CCC/C=C/c1cccc(CC(=O)O)c1 [Compound IV, Sodium Salt of E-(3-pent-1-enyl-phenyl)acetic acid], the fold induction at 500 µM [1] is reported as 3.8.

For CCCC/C=C/c1cccc(CC(=O)O)c1 [Compound V, Sodium Salt of 2-(3-(Hex-1-enyl]phenyl)acetic acid], the fold induction at 100 µM [4] was 2.73.

CCCCCCc1cccc(CC(=O)O)c1 [Compound VI, Sodium Salt of 2-(3-Hexylphenyl)acetic acid] gave a fold induction at 100 µM [4] of 2.77.

In the case of CCCCCc1cc(O)cc(CC(=O)O)c1 [Compound VII, Sodium Salt of 3-hydroxy-5-pentylphenylacetic acid], the fold induction at 500 µM [1] is reported as 2.66.

Compound CCCCCc1cc(CC(=O)O)ccc1O [Compound VIII, Sodium Salt of 2-(4-Hydroxy-3-pentylphenyl)acetic acid] has a fold induction at 500 µM [1] of 1.44.

With CCCCCc1cc(F)cc(CC(=O)O)c1 [Compound X, Sodium Salt of 2-(3-fluoro-5-pentylphenyl)acetic acid] the fold induction at 250 µM [4] was 3.06.

CCCCCc1cccc(CC(=O)O)c1F [Compound XI, Sodium Salt of 2-(2-Fluoro-3-pentylphenyl)acetic acid] showed a fold induction at 250 µM [4] of 3.38.

Compound CCCCCc1cc(CC(=O)O)ccc1F [Compound XII, Sodium Salt of 2-(4-Fluoro-3-pentylphenyl)acetic acid] has a fold induction at 500 µM [1] of 2.47.

With CCCCCc1cc(CCCCC)cc(CC(=O)[O-])c1.[Na+] [Compound XIV, Sodium 2-[3,5-Dipentylphenyl]acetate] the melting point was 225 to 230 °C.

With CCCCCc1cc(CC(=O)O)cc(CCCCC)c1O [Compound XVIII, Sodium Salt of 2-(4-Hydroxy-3,5-dipentylphenyl)acetic acid] the fold induction at 25 µM ([4]; compound 25 μM) was 1.4.

In the case of CCCCCc1cc(CCCCC)c(F)c(CC(=O)O)c1 [Compound XXXII, Sodium Salt of 2-(2-Fluoro-3,5-dipentylphenyl)acetic Acid], the fold induction at 10 µM ([4]; compound 10 μM) is reported as 1.73.

For CCCCCc1cc(CCCCC)cc(C(C)(C)C(=O)O)c1 [Compound XXXIII, Sodium Salt of 2-(3,5-Dipentylphenyl)-2-methylpropanoic Acid], the fold induction at 6 µM ([4]; compound 6 μM) was 1.54.
